What was measured:
[1] = tested on: ABUTH (Velvetleaf); test: Postemergence herbicidal evaluation; format: in vivo, Abutilon theophrasti; settings: postemergence
Method in brief: (§1)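 First, seedlings were raised for around two weeks. Next, test material in 50/50 acetone/water containing 0.5% TWEEN 20 was sprayed through a nozzle at 40 psi, equivalent to about 0.0156–0.500 kg/ha. Finally, after 4–5 weeks in the greenhouse, plants were rated 0–9.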

[2] = tested on: ABUTH (Velvetleaf); test: Preemergence herbicidal evaluation; format: in vivo, Abutilon theophrasti; settings: rated 4-5 weeks after treatment, rating scale 0-9
Method in brief: (§2)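 Each species is sown separately in potting soil over roughly an inch of soil before any emergence. The soil surface then receives an aqueous acetone spray delivering about 0.0156 to 0.500 kg/ha of compound. After four to five weeks, injury is scored from 0 to 9 relative to a control.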

[3] = tested on: CASOB (Sicklepod); test: Preemergence herbicidal evaluation; format: in vivo, Cassia obtusifolia; settings: rated 4-5 weeks after treatment, rating scale 0-9
Method in brief: as §2

[4] = tested on: TRZAWR (Wheat, Winter, cv Riband); test: Preemergence herbicidal evaluation; format: in vivo, Triticum aestivum; settings: rated 4-5 weeks after treatment, rating scale 0-9
Method in brief: as §2

[5] = tested on: CHEAL (Lambsquarters, Common); test: Preemergence herbicidal evaluation; format: in vivo, Chenopodium album; settings: rated 4-5 weeks after treatment, rating scale 0-9
Method in brief: as §2

[6] = tested on: IPOHE (Morningglory, Ivyleaf); test: Preemergence herbicidal evaluation; format: in vivo, Ipomoea hederacea; settings: rated 4-5 weeks after treatment, rating scale 0-9
Method in brief: as §2

[7] = tested on: ECHCG (Barnyardgrass); test: Preemergence herbicidal evaluation; format: in vivo, Echinochloa crus-galli; settings: rated 4-5 weeks after treatment, rating scale 0-9
Method in brief: as §2

[8] = tested on: SETVI (Foxtail, Green); test: Postemergence herbicidal evaluation; format: in vivo, Setaria viridis; settings: postemergence
Method in brief: as §1

[9] = tested on: ECHCG (Barnyardgrass); test: Postemergence herbicidal evaluation; format: in vivo, Echinochloa crus-galli; settings: postemergence
Method in brief: as §1

[10] = tested on: ORYSAT (Rice, Tebonnet); test: Postemergence herbicidal evaluation; format: in vivo, Oryza sativa, (L.) Tebonnet; settings: postemergence
Method in brief: as §1

[11] = tested on: CHEAL (Lambsquarters, Common); test: Postemergence herbicidal evaluation; format: in vivo, Chenopodium album; settings: postemergence
Method in brief: as §1

[12] = tested on: ZEAMX (Corn, Field); test: Postemergence herbicidal evaluation; format: in vivo, Zea mays; settings: postemergence
Method in brief: as §1

[13] = tested on: GLXMAW (Soybean, Williams); test: Preemergence herbicidal evaluation; format: in vivo, Glycine max, (L.) Merr. cv Williams; settings: rated 4-5 weeks after treatment, rating scale 0-9
Method in brief: as §2

[14] = tested on: ZEAMX (Corn, Field); test: Preemergence herbicidal evaluation; format: in vivo, Zea mays; settings: rated 4-5 weeks after treatment, rating scale 0-9
Method in brief: as §2

[15] = tested on: IPOHE (Morningglory, Ivyleaf); test: Postemergence herbicidal evaluation; format: in vivo, Ipomoea hederacea; settings: postemergence
Method in brief: as §1

`COc1ccc(CN2C(=O)CSC2=Nc2cc(-n3c(=O)cc(C(F)(F)F)n(C)c3=O)c(F)cc2Cl)c(OC)c1` [Compound 139, 3-{4-Chloro-5-{[3-(2,4-dimethoxybenzyl)-4-oxo-2-thiazolidinylidene]amino}-2-fluorophenyl}-1-methyl-6-(trifluoromethyl)-2,4(1H,3H)-pyrimidinedione] was tested, and the “herbicidal rating ABUTH” value ([1]; rate 0.0156 kg/ha) was 9.0, the “herbicidal rating ABUTH” value ([1]; rate 0.0313 kg/ha) was 9.0 and the “herbicidal rating ABUTH” value ([1]; rate 0.0625 kg/ha) was 9.0. The “Preemergence herbicidal rating ABUTH” value ([2]; rate 0.0156 kg/ha) was 0.0, the “Preemergence herbicidal rating ABUTH” value ([2]; rate 0.0313 kg/ha) was 0.0 and the “Preemergence herbicidal rating ABUTH” value ([2]; rate 0.0625 kg/ha) was 0.0. The “Preemergence herbicidal rating ABUTH” value ([2]; rate 0.1250 kg/ha) was 9.0, the “Preemergence herbicidal rating ABUTH” value ([2]; rate 0.2500 kg/ha) was 9.0 and the “Preemergence herbicidal rating CASOB” value ([3]; rate 0.0156 kg/ha) was 0.0. The “Preemergence herbicidal rating CASOB” value ([3]; rate 0.0313 kg/ha) was 0.0, the “Preemergence herbicidal rating CASOB” value ([3]; rate 0.0625 kg/ha) was 1.0 and the “Preemergence herbicidal rating CASOB” value ([3]; rate 0.1250 kg/ha) was 2.0. The “Preemergence herbicidal rating CASOB” value ([3]; rate 0.2500 kg/ha) was 1.0, the “Preemergence herbicidal rating TRZAWR” value ([4]; rate 0.0156 kg/ha) was 0.0 and the “Preemergence herbicidal rating TRZAWR” value ([4]; rate 0.0313 kg/ha) was 0.0. The “Preemergence herbicidal rating TRZAWR” value ([4]; rate 0.0625 kg/ha) was 0.0, the “Preemergence herbicidal rating TRZAWR” value ([4]; rate 0.1250 kg/ha) was 0.0 and the “Preemergence herbicidal rating TRZAWR” value ([4]; rate 0.2500 kg/ha) was 1.0. The “Preemergence herbicidal rating CHEAL” value ([5]; rate 0.0156 kg/ha) was 0.0, the “Preemergence herbicidal rating CHEAL” value ([5]; rate 0.0313 kg/ha) was 7.0 and the “Preemergence herbicidal rating CHEAL” value ([5]; rate 0.0625 kg/ha) was 9.0. The “Preemergence herbicidal rating CHEAL” value ([5]; rate 0.1250 kg/ha) was 9.0, the “Preemergence herbicidal rating CHEAL” value ([5]; rate 0.2500 kg/ha) was 9.0 and the “Preemergence herbicidal rating IPOHE” value ([6]; rate 0.0156 kg/ha) was 0.0. The “Preemergence herbicidal rating IPOHE” value ([6]; rate 0.0313 kg/ha) was 0.0, the “Preemergence herbicidal rating IPOHE” value ([6]; rate 0.0625 kg/ha) was 2.0 and the “Preemergence herbicidal rating IPOHE” value ([6]; rate 0.2500 kg/ha) was 2.0. The “Preemergence herbicidal rating ECHCG” value ([7]; rate 0.0156 kg/ha) was 1.0, the “Preemergence herbicidal rating ECHCG” value ([7]; rate 0.0313 kg/ha) was 0.0 and the “Preemergence herbicidal rating ECHCG” value ([7]; rate 0.0625 kg/ha) was 0.0. The “Preemergence herbicidal rating ECHCG” value ([7]; rate 0.1250 kg/ha) was 1.0, the “Preemergence herbicidal rating ECHCG” value ([7]; rate 0.2500 kg/ha) was 1.0 and the “herbicidal rating SETVI” value ([8]; rate 0.0156 kg/ha) was 2.0. The “herbicidal rating SETVI” value ([8]; rate 0.0313 kg/ha) was 2.0, the “herbicidal rating SETVI” value ([8]; rate 0.0625 kg/ha) was 5.0 and the “herbicidal rating ECHCG” value ([9]; rate 0.0156 kg/ha) was 3.0. For the same compound, the “herbicidal rating ECHCG” value ([9]; rate 0.0313 kg/ha) was 2.0, the “herbicidal rating ECHCG” value ([9]; rate 0.0625 kg/ha) was 3.0 and the “herbicidal rating ORYSAT” value ([10]; rate 0.0156 kg/ha) was 2.0. The “herbicidal rating ORYSAT” value ([10]; rate 0.0313 kg/ha) was 3.0, the “herbicidal rating ORYSAT” value ([10]; rate 0.0625 kg/ha) was 3.5 and the “herbicidal rating CHEAL” value ([11]; rate 0.0156 kg/ha) was 9.0. The “herbicidal rating CHEAL” value ([11]; rate 0.0313 kg/ha) was 9.0, the “herbicidal rating CHEAL” value ([11]; rate 0.0625 kg/ha) was 9.0 and the “herbicidal rating ZEAMX” value ([12]; rate 0.0156 kg/ha) was 4.5. For the same compound, the “herbicidal rating ZEAMX” value ([12]; rate 0.0313 kg/ha) was 4.5, the “herbicidal rating ZEAMX” value ([12]; rate 0.0625 kg/ha) was 5.0 and the “Preemergence herbicidal rating GLXMAW” value ([13]; rate 0.0156 kg/ha) was 0.0. For the same compound, the “Preemergence herbicidal rating GLXMAW” value ([13]; rate 0.0313 kg/ha) was 1.0, the “Preemergence herbicidal rating GLXMAW” value ([13]; rate 0.0625 kg/ha) was 0.0 and the “Preemergence herbicidal rating GLXMAW” value ([13]; rate 0.1250 kg/ha) was 0.0. For the same compound, the “Preemergence herbicidal rating GLXMAW” value ([13]; rate 0.2500 kg/ha) was 1.0, the “Preemergence herbicidal rating ZEAMX” value ([14]; rate 0.0156 kg/ha) was 0.0 and the “Preemergence herbicidal rating ZEAMX” value ([14]; rate 0.0313 kg/ha) was 0.0. The “Preemergence herbicidal rating ZEAMX” value ([14]; rate 0.0625 kg/ha) was 0.0, the “Preemergence herbicidal rating ZEAMX” value ([14]; rate 0.1250 kg/ha) was 0.0 and the “Preemergence herbicidal rating ZEAMX” value ([14]; rate 0.2500 kg/ha) was 1.0. The “herbicidal rating IPOHE” value ([15]; rate 0.0156 kg/ha) was 9.0, the “herbicidal rating IPOHE” value ([15]; rate 0.0313 kg/ha) was 9.0 and the “herbicidal rating IPOHE” value ([15]; rate 0.0625 kg/ha) was 5.0.

Reference: patent US20020137929A1, “1 - (3-heterocyclylphenyl) isothiourea, -isourea, -guanidine and -amidine herbicidal agents” (Intellectual Property Department, BASF Aktiengesellschaft, priority 1998, published 2002)
